Experimental data published in ChEMBL document CHEMBL1201862, “PubChem BioAssay data set” (2004).
Each block holds one compound with its values, some of them ahead of it. Activity calls are given as the source filed them.

What was measured:
[1] = target: Lysosomal acid glucosylceramidase (Homo sapiens, UniProt P04062); test: Dose response cell-based high throughput screening assay to identify enhancers of beta-glucosidase activity. [Related pubchem assays: 784 ]; type: functional
Cytochrome P450 3A4 = Cytochrome P450 3A4 (Homo sapiens, UniProt P08684); conditions: Potency;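 also: confirmatory qHTS run detecting inhibitors and substrates of CYP3A4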
Cytochrome P450 3A4, sequence (P08684 whole entry): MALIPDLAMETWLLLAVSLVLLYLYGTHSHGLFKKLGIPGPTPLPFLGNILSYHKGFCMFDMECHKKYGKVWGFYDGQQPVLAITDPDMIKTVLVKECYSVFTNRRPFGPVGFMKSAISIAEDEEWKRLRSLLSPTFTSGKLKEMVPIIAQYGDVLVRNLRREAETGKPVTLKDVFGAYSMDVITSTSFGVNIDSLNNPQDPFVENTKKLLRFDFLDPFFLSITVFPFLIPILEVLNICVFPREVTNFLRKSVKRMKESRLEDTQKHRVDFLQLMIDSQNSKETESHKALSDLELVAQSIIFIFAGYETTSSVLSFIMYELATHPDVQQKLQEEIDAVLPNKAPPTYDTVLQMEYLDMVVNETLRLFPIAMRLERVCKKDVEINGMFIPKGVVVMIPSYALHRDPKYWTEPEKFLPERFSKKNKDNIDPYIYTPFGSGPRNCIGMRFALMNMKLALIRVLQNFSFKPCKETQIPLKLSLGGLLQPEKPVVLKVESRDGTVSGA

Cytochrome P450 2C9 = Cytochrome P450 2C9 (Homo sapiens, UniProt P11712); conditions: Potency
Cytochrome P450 2C9, sequence (P11712 whole entry): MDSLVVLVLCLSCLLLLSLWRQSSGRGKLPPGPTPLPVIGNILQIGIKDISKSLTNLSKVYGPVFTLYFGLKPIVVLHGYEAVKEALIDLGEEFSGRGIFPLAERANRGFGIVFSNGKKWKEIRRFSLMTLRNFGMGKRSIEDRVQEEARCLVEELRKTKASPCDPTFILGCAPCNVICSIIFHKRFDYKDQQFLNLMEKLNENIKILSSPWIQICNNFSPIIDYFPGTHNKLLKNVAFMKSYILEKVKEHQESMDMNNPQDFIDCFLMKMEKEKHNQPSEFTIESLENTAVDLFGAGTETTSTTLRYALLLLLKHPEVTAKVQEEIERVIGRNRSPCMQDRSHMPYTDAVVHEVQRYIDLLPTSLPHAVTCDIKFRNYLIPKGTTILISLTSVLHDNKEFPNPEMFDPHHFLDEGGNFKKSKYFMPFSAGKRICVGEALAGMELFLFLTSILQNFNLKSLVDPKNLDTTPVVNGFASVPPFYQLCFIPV

[2] = target: Melanin-concentrating hormone receptor 1 (Homo sapiens, UniProt Q99705); test: Late-stage fluorescence-based counterscreen for antagonists of the G-protein coupled receptor 7 (GPR7): cell-based dose response assay to identify antagonists of the melanin-concentrating hormone receptor 1 (MCHR1). [Related pubchem assays (depositor defined):AID1861, AID1880, AID1952, AID2148, AID2251, AID2257, AID485339]; type: functional;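 also: stimulated with 30 nM MCH peptide agonist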
Melanin-concentrating hormone receptor 1, sequence (Q99705 whole entry): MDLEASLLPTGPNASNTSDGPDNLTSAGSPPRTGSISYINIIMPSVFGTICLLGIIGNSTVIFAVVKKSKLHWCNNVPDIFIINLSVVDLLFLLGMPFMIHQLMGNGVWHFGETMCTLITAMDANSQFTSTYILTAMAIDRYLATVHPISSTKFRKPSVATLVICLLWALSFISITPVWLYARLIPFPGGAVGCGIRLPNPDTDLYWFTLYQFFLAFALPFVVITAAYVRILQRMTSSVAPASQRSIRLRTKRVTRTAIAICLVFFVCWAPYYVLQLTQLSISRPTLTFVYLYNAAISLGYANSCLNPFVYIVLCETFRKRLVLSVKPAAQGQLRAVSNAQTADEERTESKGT

[3] = target: Eukaryotic translation initiation factor 4E (Mus musculus, UniProt P63073); test: blockers of eIF4G binding by eIF4E – biochemical, TR-FRET, dose response (AID 855); type: functional;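 also: potency for disrupting eIF4E binding to eIF4GI seen as loss of FRET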
Eukaryotic translation initiation factor 4E, sequence (P63073 whole entry): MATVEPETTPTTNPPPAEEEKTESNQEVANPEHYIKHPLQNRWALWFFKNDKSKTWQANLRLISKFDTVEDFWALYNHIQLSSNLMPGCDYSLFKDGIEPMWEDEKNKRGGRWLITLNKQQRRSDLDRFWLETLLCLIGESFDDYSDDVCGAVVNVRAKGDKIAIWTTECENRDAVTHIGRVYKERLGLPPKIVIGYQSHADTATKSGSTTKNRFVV

HEK293 = test: Fluorescence-based counterscreen for potentiators or agonists of NPY-Y2: cell-based high-throughput dose response assay to identify inhibitors of cyclic nucleotide gated ion channel (CNGC) activity. In this assay, the parental HEK293 cell line transfected with a cyclic-nucleotide gated ion channel (CNGC)-based cAMP sensor is used to measure inhibition of isoproterenol-induced CNGC activity by test compound.; type: functional; conditions: Homo sapiens;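 also: stimulus is 1 µM isoproterenol at EC100 plus PDE inhibitor Ro 20-1724 at 25 µM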
[4] = HIV-1 AD8 envelope cell-cell fusion blockers – cherry-pick, dose response (AID 652062); type: functional, cell-based;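 also: luciferase signal from cell-cell fusion driven by HIV-1 clade B AD8 Env; potency is for inhibitors of fusion seen as a drop in luminescence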
[5] = off-target signal loss in HeLa-CEM21 co-culture – HeLa F-luc CTL cells, cherry-picked, counter-screen for HIV-1 Env fusion inhibitor project, dose response (AID 652040); type: functional, cell-based;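 also: potency for signal decrease marking cytotoxic or nonspecific inhibition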
[6] = blockers of HIV-1 envelope-mediated cell-cell fusion – cherry-pick, dose response (AID 652057); type: functional, cell-based
[7] = target: Neuropeptide Y receptor type 1 (Homo sapiens, UniProt P25929); test: Fluorescence-based counterscreen for agonists of NPY-Y2: cell-based high-throughput dose response assay for agonists of NPY-Y1.; type: functional
Neuropeptide Y receptor type 1, sequence (P25929 whole entry): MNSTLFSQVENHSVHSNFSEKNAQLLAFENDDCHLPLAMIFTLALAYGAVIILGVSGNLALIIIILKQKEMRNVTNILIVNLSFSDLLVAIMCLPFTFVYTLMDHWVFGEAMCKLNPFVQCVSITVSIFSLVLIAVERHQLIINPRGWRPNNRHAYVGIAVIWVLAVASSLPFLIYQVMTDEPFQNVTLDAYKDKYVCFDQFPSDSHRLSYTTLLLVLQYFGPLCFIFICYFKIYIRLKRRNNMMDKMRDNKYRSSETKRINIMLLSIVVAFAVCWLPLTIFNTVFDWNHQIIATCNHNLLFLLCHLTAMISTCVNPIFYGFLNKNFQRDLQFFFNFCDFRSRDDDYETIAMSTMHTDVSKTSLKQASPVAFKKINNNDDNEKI

[8] = target: Neuropeptide Y receptor type 2 (Homo sapiens, UniProt P49146); test: Fluorescence-based cell-based high-throughput dose response assay for agonists of NPY-Y2. [Related pubchem assays: 1703 (Screening assay (CNGC inhibitors).), 1359 (Screening assay (NPY-Y2 potentiators or agonists).), 1304 (Screening assay (NPY-Y1 potentiators or agonists).), 1710 (Screening assay (NPY-Y2 agonists).), 1791 (Summary AID.)]; type: functional
Neuropeptide Y receptor type 2, sequence (P49146 whole entry): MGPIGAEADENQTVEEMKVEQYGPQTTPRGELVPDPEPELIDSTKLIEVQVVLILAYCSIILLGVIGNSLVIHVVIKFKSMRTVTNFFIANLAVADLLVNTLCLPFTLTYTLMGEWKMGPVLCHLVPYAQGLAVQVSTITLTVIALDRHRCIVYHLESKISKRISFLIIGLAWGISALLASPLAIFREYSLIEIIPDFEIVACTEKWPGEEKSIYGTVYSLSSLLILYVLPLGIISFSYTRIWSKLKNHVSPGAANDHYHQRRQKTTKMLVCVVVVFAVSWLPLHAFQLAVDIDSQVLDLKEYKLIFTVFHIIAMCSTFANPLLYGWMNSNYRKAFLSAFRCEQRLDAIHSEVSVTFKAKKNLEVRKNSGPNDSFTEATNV

INS1 = test: INS-1E survival protection against cytokine death – cell-based, luminescence, retest, dose response (AID 449756); type: functional; conditions: Rattus norvegicus;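 also: cell death triggered by IL-1 beta plus TNF-alpha plus IFN-gamma mixture; protective hits raise ATP signal compared with cytokine alone wells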

Lysosomal acid glucosylceramidase, sequence (P04062 whole entry): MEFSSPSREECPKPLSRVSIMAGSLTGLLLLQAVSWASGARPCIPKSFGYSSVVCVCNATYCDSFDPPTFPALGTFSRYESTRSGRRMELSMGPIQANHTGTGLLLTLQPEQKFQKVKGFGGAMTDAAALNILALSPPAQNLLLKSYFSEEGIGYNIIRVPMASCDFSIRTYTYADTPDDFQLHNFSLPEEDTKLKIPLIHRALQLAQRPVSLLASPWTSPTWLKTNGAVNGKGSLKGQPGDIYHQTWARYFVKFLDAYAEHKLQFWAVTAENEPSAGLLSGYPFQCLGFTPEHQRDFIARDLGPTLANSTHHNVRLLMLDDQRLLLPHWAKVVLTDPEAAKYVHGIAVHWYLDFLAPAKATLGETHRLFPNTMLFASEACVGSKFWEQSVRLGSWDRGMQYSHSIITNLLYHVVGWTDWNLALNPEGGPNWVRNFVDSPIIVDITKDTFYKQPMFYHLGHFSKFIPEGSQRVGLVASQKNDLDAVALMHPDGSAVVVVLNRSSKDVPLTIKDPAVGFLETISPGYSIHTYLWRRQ

EC50 [1]: > 50 µM (not active)
Compound: CC(C)Oc1cccc(C(=O)Nc2ccccc2N2CCOCC2)c1

AC50 (Cytochrome P450 3A4): 3.16 µM (inconclusive) | AC50 (Cytochrome P450 2C9): 7.94 µM (inconclusive)
Compound: CCCCCCCC#Cc1ccccc1C(NC(=O)OC)C(C(=O)OC)C(=O)OC (configuration not stated)

IC50 [2]: 13.7 µM (inactive)
Compound: Cc1ccc(-n2ncc(Cl)c(Oc3ccccc3)c2=O)cc1

Compound: N#C/C(=N\Nc1ccc(Cl)cc1)C(=O)c1ccccc1
IC50 [3]: > 64 µM (inactive) | EC50 (HEK293): 7.25 µM (active) | AC50 [4]: 24.5 µM (active) | AC50 [5]: 42 µM (active) | AC50 [6]: 39.2 µM (active) | EC50 [7]: 9.38 µM (active) | EC50 [8]: 9.92 µM (active) | AC50 (INS1): 3.07 µM (active)
